Measured values: US5866775A, “Glyphosate-tolerant 5-enolpyruvyl-3-phosphoshikimate synthases” (Monsanto Company, priority 1990, dated 1999)

Legend:
[1] = tested on: transgenic canola plants containing pMON10074 (Arabidopsis EPSPS gly-ala(101), ala-thr(192)); experiment: Glyphosate spray of canola, pMON10074 plants; type: in vivo; conditions: 0.56 kg/ha spray; 15 transgenic plants
Description: The resulting plasmid, pMON8324, was partially sequenced to confirm the mutagenesis. […] The pMON10074 plasmid contains the following DNA segments (FIG. 5, clockwise). First, the 0.93 kb fragment isolated from transposon Tn7 which encodes bacterial spectinomycin/streptomycin resistance (Spc/Str), and is a determinant for selection in E. coli and Agrobacterium tumefaciens (Fling et al. 1985). This is joined to the chimeric kanamycin resistance gene engineered for plant expression to allow selection of the transformed tissue. […]
A total of 15 transgenic canola plants containing the pMON10074 construct, and 2 non-transformed controls were sprayed with glyphosate at a commercial rate of 0.56 kg/ha. The effect of glyphosate on both the vegetative and reproductive performance of the sprayed plants was scored at 7, 14 and 28 days after spray. […]

[2] = tested on: tobacco, sugarbeet, tomato, soybean and cotton plants transformed with the variant EPSPS gene; experiment: Glyphosate tolerance of other transformed plant species; conditions: in vivo
Description: A gene encoding the variant EPSPS enzyme of the present invention having a glycine to alanine substitution at position 101 and an alanine to threonine substitution at position 192 of the mature EPSPS enzyme has also been introduced into other plant species such as tobacco, sugarbeet, tomato, soybean and cotton. […] In particular, the glycine to alanine and alanine to threonine substitutions of the present invention have been introduced into a genomic clone of the Arabidopsis EPSPS gene and this gene introduced into canola and tobacco plants using suitable plant transformation vectors.

[3] = target: T1, pMON8252 encoded petunia EPSPS variant, glycine (101) to alanine and alanine (192) to threonine (Petunia hybrida, UniProt P11043, A264T/G173A); experiment: EPSP synthase kinetic constants (appKm PEP, appKi glyphosate); type: biochemical
T1 construct: alanine 192 in the mature petunia EPSP synthase; made in house; host or cells: E. coli SR481 (aroA-)
Experimental: The balance of the #742 preculture (~750 μl) was used to inoculate 2 ml of 2XYT medium containing 50 μg/ml carbenicillin and was shaken overnight at 37° C. to reach saturation. Plasmid DNA was isolated from an aliquot of the saturated culture using an alkaline lysis procedure. The plasmid was designated pMON8252. An aliquot of the pMON8252 plasmid was used to transform the E. coli host SR481 (described above) and reselected on MOPS medium containing 10 mM glyphosate and 50 μg/ml carbenicillin. A single glyphosate resistant colony of pMON8252 was picked off the selection plate and used to inoculate 3 ml of 2XY1 bacterial medium containing 50 μg/ml carbenicillin. The culture was then aerated on a rotating wheel at 37° C. until saturated and then used to inoculate a larger 250 ml culture. The large culture was grown to saturation by continuously shaking it overnight at 37° C. in a water bath. The bacterial cells were lysed and the extracts were assayed for EPSPS activity.
Specifically, the bacterial cell paste was washed twice with 0.9% saline, suspended in buffer (100 mM Tris-HCl, 5 mM benzamidine HCl) and passed twice through a French Pressure Cell at 1000 psi. The cell extract was separated from the cells by centrifuging at 15,000×gravity for 10 minutes at 5° C. It was desalted using Sephadex G-50 (Pharmacia, Piscataway, N.J.). The desalted extract was assayed for EPSP synthase activity as follows.
Kinetic constants (appKm PEP and appKi glyphosate) were determined for EPSP synthase as described below. Substrate kinetic parameters were determined at pH 7.9 in 50 mM HEPES (N-[2-hydroxyethyl]piperazine-N'-[2-ethanesulfonic acid]) buffer in the presence of 2 mM S3P and varying amounts of ^14 C-PEP (10 μM-400 μM), for 2.0 minutes at 25° C. Reactions were quenched with 100 mM NaAcetate in ethanol, pH 4.5, centrifuged and analyzed for product EPSP formation by HPLC with flow radioactivity detection. HPLC conditions were 0.35M KPi, pH 6.5, on a Synchropak AX100 column at 1.0 ml/minute.

T1 sequence (P11043 73-516 G173A/A264T): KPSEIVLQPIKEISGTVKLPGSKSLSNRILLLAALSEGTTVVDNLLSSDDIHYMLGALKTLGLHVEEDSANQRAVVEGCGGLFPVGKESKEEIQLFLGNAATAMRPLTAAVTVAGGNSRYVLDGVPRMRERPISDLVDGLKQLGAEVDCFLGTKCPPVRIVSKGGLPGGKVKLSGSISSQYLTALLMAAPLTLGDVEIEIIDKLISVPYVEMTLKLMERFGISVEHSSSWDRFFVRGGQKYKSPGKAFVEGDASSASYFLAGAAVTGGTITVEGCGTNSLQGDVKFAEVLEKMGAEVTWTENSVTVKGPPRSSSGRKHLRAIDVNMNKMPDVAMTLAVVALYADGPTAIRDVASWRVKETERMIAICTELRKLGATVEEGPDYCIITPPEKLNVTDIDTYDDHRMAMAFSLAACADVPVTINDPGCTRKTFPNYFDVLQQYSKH

For `O=C(O)CNCP(=O)(O)O` [glyphosate, N-phosphonomethylglycine], the “reproductive score (scale 0-10, 0 total kill, 10 normal unsprayed plant)” value [1] was 7 out of 15 had reproductive scores greater than 8 with 3 of them scoring 10, the “vegetative score (scale 0-10, 0 total kill, 10 normal unsprayed plant)” value [1] was 6 out of 15 plants having vegetative scores greater than 8, with 1 scoring a 10 and the “glyphosate tolerance of transformed plants” value [2] was “exhibited glyphosate tolerance”. For the same molecule, the “Ki /Km ratio” value ([3]; Ki glyphosate / Km PEP) was 12.6 and the Ki for glyphosate ([3]; versus PEP, extract of SR481 cells with pMON8252) was 683 µM.
